What was measured:
Test in all cases: Test G preemergence/postemergence greenhouse plant response rating 0 to 100
[1] = tested on: broadleaf signalgrass; assay type: in vivo, Brachiaria plantaginea; conditions: 0 to 100 scale
Excerpt: (§1) Seeds, rhizomes, or plant parts of alfalfa (Medicago ativa), annual bluegrass (Poa annua), bermudagrass (Cynodon dactylon), broadleaf signalgrass (Brachiaria plantaginea), common purslane (Portulaca oleracea), common ragweed (Ambrosia elatior), […] (Paspalum dilatatum), goosegrass (Eleusine indica), guineagrass (Panicum maximum), […] exaltata), johnsongrass (Sorghum halepense), large crabgrass (Digitaria sanguinalis), peanut (Arachis hypoagaea), pitted morningglory (Ipomoea lacunosa), purple nutsedge (Cyperus rotundus), sandbur (Cenchrus echinatus), smooth crabgrass (Digitaria ischaemum) and yellow nutsedge (Cyperus esculentus) were planted into greenhouse pots containing greenhouse planting medium. Each pot contained only one plant species. The test compound was dissolved in a non-phytotoxic solvent and applied preemergence and/or postemergence to the plants. Preemergence applications were made within one day of planting the seeds or plant parts. Postemergence applications were applied when the plants were in the two to four leaf stage (three to twenty cm). Test chemicals were dissolved in a non-phytotoxic solvent and applied preemergence and postemergence to the plants. Untreated control plants and treated plants were placed in the greenhouse and visually evaluated for injury at 13 to 21 days after herbicide application. […] A dash (-) response indicates no test result.

[2] = tested on: guineagrass; assay type: in vivo, Panicum maximum; conditions: 0 to 100 scale
Excerpt: as §1

[3] = tested on: annual bluegrass; assay type: in vivo, Poa annua; conditions: 0 to 100 scale
Excerpt: as §1

[4] = tested on: smooth crabgrass; assay type: in vivo, Digitaria ischaemum; conditions: 0 to 100 scale
Excerpt: as §1

[5] = tested on: purple nutsedge; assay type: in vivo, Cyperus rotundus; conditions: Rate 125 g/ha, 0 to 100 scale
Excerpt: as §1

[6] = tested on: peanut; assay type: in vivo, Arachis hypoagaea; conditions: 0 to 100 scale
Excerpt: as §1

[7] = tested on: bermudagrass; assay type: in vivo, Cynodon dactylon; conditions: 0 to 100 scale
Excerpt: as §1

[8] = tested on: johnsongrass; assay type: in vivo, Sorghum halepense; conditions: 0 to 100 scale
Excerpt: as §1

[9] = tested on: common ragweed; assay type: in vivo, Ambrosia elatior; conditions: 0 to 100 scale
Excerpt: as §1

[10] = tested on: yellow nutsedge; assay type: in vivo, Cyperus esculentus; conditions: Rate 125 g/ha, 0 to 100 scale
Excerpt: as §1

[11] = tested on: goosegrass; assay type: in vivo, Eleusine indica; conditions: 0 to 100 scale
Excerpt: as §1

[12] = tested on: itchgrass; assay type: in vivo, Rottboellia exaltata; conditions: 0 to 100 scale
Excerpt: as §1

[13] = tested on: alfalfa; assay type: in vivo, Medicago ativa; conditions: 0 to 100 scale
Excerpt: as §1

[14] = tested on: large crabgrass; assay type: in vivo, Digitaria sanguinalis; conditions: 0 to 100 scale
Excerpt: as §1

[15] = tested on: pitted morningglory; assay type: in vivo, Ipomoea lacunosa; conditions: 0 to 100 scale
Excerpt: as §1

[16] = tested on: common purslane; assay type: in vivo, Portulaca oleracea; conditions: 0 to 100 scale
Excerpt: as §1

[17] = tested on: dallisgrass; assay type: in vivo, Paspalum dilatatum; conditions: 0 to 100 scale
Excerpt: as §1

## COC(=O)C(C)Oc1cc(-c2nn3c(c2Cl)CCCC3)c(F)cc1Cl (stereo not shown) [Compound 28]
[1]; POSTEMERGENCE, Rate 125 g/ha
  Plant response rating, Brdlf Sgnlgrass: 0
[1]; POSTEMERGENCE, Rate 250 g/ha
  Plant response rating, Brdlf Sgnlgrass: 0
[1]; PREEMERGENCE, Rate 125 g/ha
  Plant response rating, Brdlf Sgnlgrass: 0
[1]; PREEMERGENCE, Rate 250 g/ha
  Plant response rating, Brdlf Sgnlgrass: 0
[2]; POSTEMERGENCE, Rate 125 g/ha
  Plant response rating, Guineagrass: 0
[2]; POSTEMERGENCE, Rate 250 g/ha
  Plant response rating, Guineagrass: 0
[2]; PREEMERGENCE, Rate 125 g/ha
  Plant response rating, Guineagrass: 0
[2]; PREEMERGENCE, Rate 250 g/ha
  Plant response rating, Guineagrass: 0
[3]; POSTEMERGENCE, Rate 125 g/ha
  Plant response rating, Ann Bluegrass: 0
[3]; POSTEMERGENCE, Rate 250 g/ha
  Plant response rating, Ann Bluegrass: 0
[3]; PREEMERGENCE, Rate 125 g/ha
  Plant response rating, Ann Bluegrass: 0
[3]; PREEMERGENCE, Rate 250 g/ha
  Plant response rating, Ann Bluegrass: 0
[4]; POSTEMERGENCE, Rate 125 g/ha
  Plant response rating, Smooth Crabgras: 0
[4]; POSTEMERGENCE, Rate 250 g/ha
  Plant response rating, Smooth Crabgras: 0
[4]; PREEMERGENCE, Rate 125 g/ha
  Plant response rating, Smooth Crabgras: 0
[4]; PREEMERGENCE, Rate 250 g/ha
  Plant response rating, Smooth Crabgras: 0
[5]; POSTEMERGENCE
  Plant response rating, Purple Nutsedge: 0
[5]; PREEMERGENCE
  Plant response rating, Purple Nutsedge: 0
[6]; POSTEMERGENCE, Rate 125 g/ha
  Plant response rating, Peanuts: 0
[6]; POSTEMERGENCE, Rate 250 g/ha
  Plant response rating, Peanuts: 0
[6]; PREEMERGENCE, Rate 125 g/ha
  Plant response rating, Peanuts: 0
[6]; PREEMERGENCE, Rate 250 g/ha
  Plant response rating, Peanuts: 0
[7]; POSTEMERGENCE, Rate 125 g/ha
  Plant response rating, Bermudagrass: 0
[7]; POSTEMERGENCE, Rate 250 g/ha
  Plant response rating, Bermudagrass: 0
[7]; PREEMERGENCE, Rate 125 g/ha
  Plant response rating, Bermudagrass: 0
[7]; PREEMERGENCE, Rate 250 g/ha
  Plant response rating, Bermudagrass: 0
[8]; POSTEMERGENCE, Rate 125 g/ha
  Plant response rating, Johnsongrass: 0
[8]; POSTEMERGENCE, Rate 250 g/ha
  Plant response rating, Johnsongrass: 0
[8]; PREEMERGENCE, Rate 125 g/ha
  Plant response rating, Johnsongrass: 0
[8]; PREEMERGENCE, Rate 250 g/ha
  Plant response rating, Johnsongrass: 0
[9]; POSTEMERGENCE, Rate 125 g/ha
  Plant response rating, Cmn Ragweed: 100
[9]; POSTEMERGENCE, Rate 250 g/ha
  Plant response rating, Cmn Ragweed: 60
[9]; PREEMERGENCE, Rate 125 g/ha
  Plant response rating, Cmn Ragweed: 0
[9]; PREEMERGENCE, Rate 250 g/ha
  Plant response rating, Cmn Ragweed: 0
[10]; POSTEMERGENCE
  Plant response rating, Yellow Nutsedge: 0
[10]; PREEMERGENCE
  Plant response rating, Yellow Nutsedge: 0
[11]; POSTEMERGENCE, Rate 125 g/ha
  Plant response rating, Goosegrass: 0
[11]; POSTEMERGENCE, Rate 250 g/ha
  Plant response rating, Goosegrass: 0
[11]; PREEMERGENCE, Rate 125 g/ha
  Plant response rating, Goosegrass: 0
[11]; PREEMERGENCE, Rate 250 g/ha
  Plant response rating, Goosegrass: 0
[12]; POSTEMERGENCE, Rate 125 g/ha
  Plant response rating, Itchgrass: 0
[12]; POSTEMERGENCE, Rate 250 g/ha
  Plant response rating, Itchgrass: 0
[12]; PREEMERGENCE, Rate 125 g/ha
  Plant response rating, Itchgrass: 0
[12]; PREEMERGENCE, Rate 250 g/ha
  Plant response rating, Itchgrass: 0
[13]; POSTEMERGENCE, Rate 125 g/ha
  Plant response rating, Alfalfa Var.: 0
[13]; POSTEMERGENCE, Rate 250 g/ha
  Plant response rating, Alfalfa Var.: 0
[13]; PREEMERGENCE, Rate 125 g/ha
  Plant response rating, Alfalfa Var.: 0
[13]; PREEMERGENCE, Rate 250 g/ha
  Plant response rating, Alfalfa Var.: 0
[14]; POSTEMERGENCE, Rate 125 g/ha
  Plant response rating, Large Crabgrass: 0
[14]; POSTEMERGENCE, Rate 250 g/ha
  Plant response rating, Large Crabgrass: 0
[14]; PREEMERGENCE, Rate 125 g/ha
  Plant response rating, Large Crabgrass: 0
[14]; PREEMERGENCE, Rate 250 g/ha
  Plant response rating, Large Crabgrass: 0
[15]; POSTEMERGENCE, Rate 125 g/ha
  Plant response rating, Pit Morninglory: 0
[15]; POSTEMERGENCE, Rate 250 g/ha
  Plant response rating, Pit Morninglory: 0
[15]; PREEMERGENCE, Rate 125 g/ha
  Plant response rating, Pit Morninglory: 0
[15]; PREEMERGENCE, Rate 250 g/ha
  Plant response rating, Pit Morninglory: 0
[16]; POSTEMERGENCE, Rate 125 g/ha
  Plant response rating, Cmn Purslane: 30
[16]; POSTEMERGENCE, Rate 250 g/ha
  Plant response rating, Cmn Purslane: 60
[16]; PREEMERGENCE, Rate 125 g/ha
  Plant response rating, Cmn Purslane: 0
[16]; PREEMERGENCE, Rate 250 g/ha
  Plant response rating, Cmn Purslane: 0
[17]; POSTEMERGENCE, Rate 125 g/ha
  Plant response rating, Dallisgrass: 0
[17]; POSTEMERGENCE, Rate 250 g/ha
  Plant response rating, Dallisgrass: 0
[17]; PREEMERGENCE, Rate 125 g/ha
  Plant response rating, Dallisgrass: 0
[17]; PREEMERGENCE, Rate 250 g/ha
  Plant response rating, Dallisgrass: 0

Source: patent publication US6358885B1, “Substituted phenylheterocyclic herbicides” (Mississippi State University, priority 1992, dated 2002)
